Reference: patent publication US20200361908A1, “CRYSTALS OF ANILINE PYRIMIDINE COMPOUND SERVING AS EGFR INHIBITOR” (CHIA TAI TIANQING PHARMACEUTICAL GROUP CO., LTD., priority 2016, published 2020)
Blank lines part the entries; values can stand above or below the molecule they belong to.

Columns and labels:
[1] = Stability test of crystal A at room temperature, kept away from light; format: physicochemical
Experimental: (§1) The stability of the crystal according to the present application may be detected by placing the crystal under a condition with a high temperature, a high humidity, or a lighting condition. The high temperature condition may be 40° C. to 60° C., the high humidity condition may be a relative humidity of 75% to 92.5% RH, and the lighting condition may be 5000 Lux. The crystal stability may be evaluated by investigating several parameters, such as the content of the crystal, the total content of impurities, or the water content, of a sample, and comprehensively evaluating these parameters according to the properties of the product.
The crystal A obtained by Method 1 of Example 3 was kept away from light at room temperature, and sampled for detection in months 1.5, 2, 5, and 6, respectively.

[2] = Stability test of crystal B under high temperature, high humidity or illumination; format: physicochemical
Experimental: as §1
The crystal B obtained by Method 5 of Example 4 was kept respectively in an environment at a high temperature of 60° C., a high humidity of 75% RH, a high humidity of 92.5% RH, or an illumination intensity of 5000 Lux, and sampled for detection on days 5, 10, and 30, respectively.

Characters ([1]; Initial Result): off-white | Content (%) ([1]; Initial Result): 100.3% | Total Impurity (%) ([1]; Initial Result): 1.11% | Characters ([1]; Month 1.5): off-white | Content (%) ([1]; Month 1.5): 100.5% | Total Impurity (%) ([1]; Month 1.5): 1.52% | Characters ([1]; Month 2): off-white | Total Impurity (%) ([1]; Month 2): 1.23% | Characters ([1]; Month 5): off-white | Content (%) ([1]; Month 5): 100% | Total Impurity (%) ([1]; Month 5): 1.5% | Characters ([1]; Month 6): off-white | Content (%) ([1]; Month 6): 99.8% | Total Impurity (%) ([1]; Month 6): 1.37%
Compound: C=CC(=O)Nc1cc(Nc2nccc(-n3c(=O)n(C)c4ccccc43)n2)c(OC)cc1N(C)CCN(C)C [crystal A]

Characters ([2]; Day 0): white | Content (%) ([2]; Day 0): 99.3% | Total Impurity (%) ([2]; Day 0): 0.12% | Characters ([2]; High Humidity 75% RH, Day 5): white | Content (%) ([2]; High Humidity 75% RH, Day 5): 99.3% | Characters ([2]; High Humidity 75% RH, Day 10): white | Content (%) ([2]; High Humidity 75% RH, Day 10): 103.6% | Total Impurity (%) ([2]; High Humidity 75% RH, Day 10): 0.07% | Characters ([2]; High Humidity 75% RH, Day 30): off-white | Content (%) ([2]; High Humidity 75% RH, Day 30): 106.4% | Total Impurity (%) ([2]; High Humidity 75% RH, Day 30): 0.06% | Characters ([2]; High Humidity 92.5% RH, Day 5): white | Content (%) ([2]; High Humidity 92.5% RH, Day 5): 98.4% | Characters ([2]; High Humidity 92.5% RH, Day 10): white | Content (%) ([2]; High Humidity 92.5% RH, Day 10): 105.2% | Total Impurity (%) ([2]; High Humidity 92.5% RH, Day 10): 0.06% | Characters ([2]; High Humidity 92.5% RH, Day 30): off-white | Content (%) ([2]; High Humidity 92.5% RH, Day 30): 103.9% | Total Impurity (%) ([2]; High Humidity 92.5% RH, Day 30): 0.07% | Characters ([2]; High Temp. 60° C., Day 5): white | Content (%) ([2]; High Temp. 60° C., Day 5): 100.5% | Characters ([2]; High Temp. 60° C., Day 10): white | Content (%) ([2]; High Temp. 60° C., Day 10): 104.2% | Total Impurity (%) ([2]; High Temp. 60° C., Day 10): 0.09% | Characters ([2]; High Temp. 60° C., Day 30): off-white | Content (%) ([2]; High Temp. 60° C., Day 30): 107.9% | Total Impurity (%) ([2]; High Temp. 60° C., Day 30): 0.19% | Characters ([2]; Illumination 5000 Lux, Day 5): white | Content (%) ([2]; Illumination 5000 Lux, Day 5): 99.4% | Total Impurity (%) ([2]; Illumination 5000 Lux, Day 5): 0.06% | Characters ([2]; Illumination 5000 Lux, Day 10): white | Content (%) ([2]; Illumination 5000 Lux, Day 10): 106.9% | Total Impurity (%) ([2]; Illumination 5000 Lux, Day 10): 0.14% | Characters ([2]; Illumination 5000 Lux, Day 30): off-white | Content (%) ([2]; Illumination 5000 Lux, Day 30): 107.9% | Total Impurity (%) ([2]; Illumination 5000 Lux, Day 30): 0.37%
Compound: C=CC(=O)Nc1cc(Nc2nccc(-n3c(=O)n(C)c4ccccc43)n2)c(OC)cc1N(C)CCN(C)C [crystal B]
